Legend:
[1] = system: caspase-3 cell staining; experiment: Caspase-3 staining as biomarker in treated tumors; format: in vivo, mice; conditions: 60 mg/kg IV
Experimental: Caspase staining also was assessed as a biomarker for compound A1 treatment of tumors.

[2] = system: A549 (human lung cancer cells) xenograft; experiment: Tumor suppression in A549 xenograft mice; format: in vivo; conditions: oral administration
Text: (§1) Animals were handled under laminar-flow hoods.
The compound was delivered by oral administration for such determinations.

[3] = system: MCF-7 xenografts; experiment: Tumor suppression in MCF-7 xenograft animals; format: in vivo, NCr nu/nu mice; conditions: oral 100 mg/kg
Experimental: as §1
(§2) Gemzar™ administered at a dose of 80 mg/kg IP Q3D was used as a positive control.

[4] = Pharmacokinetics after IV and PO dose in SD rats; format: in vivo; conditions: for Tmax / half-life / Cmax / Vd: rat, plasma
Experimental: (§3) The pharmacokinetics properties of drugs were also investigated in SD rats and beagle dogs following an intravenous (IV) bolus and oral (PO) doses of drug using similar methods. Blood samples were collected at predetermined times and the plasma separated.
(§4) Drug levels were quantified by the LC/MS/MS method described below. Noncompartmental pharmacokinetic analysis was applied for intravenous administration. […] The terminal t1/2 and C0 were calculated using the last three and the first three data points, respectively
(§5) Bioanalysis was performed using a Quattro Micro LC/MS/MS instrument in the MRM detection mode, with an internal standard (IS). Briefly, 15 µL plasma samples were prepared for analysis using protein precipitation with 120 μL of acetonitrile. The supernatants were transferred into a 96 well plate and subjected to LC-MS/MS analysis using a Phenomenex Polar-RP HPLC column. The mobile phases were 10 mM NH4HCO3 in water (Solution-A) and 10 mM NH4HCO3 in methanol (Solution-B). […] Quantitation of the analytes was performed in the batch mode with two bracketing calibration curves according to the bioanalytical sample list.

[5] = system: BX-PC3 (human pancreatic cancer cells) xenograft; experiment: Tumor suppression in BX-PC3 xenograft mice; format: in vivo
[6] = Pharmacokinetics after IV and PO dose in ICR mice; format: in vivo; conditions: for half-life: mouse, plasma
Experimental: […] Blood samples were collected at predetermined times and the plasma separated. Plasma was separated from the blood samples collected at 5, 15 and 30 minutes and 1, 2, 4, 8 and 24 hours post-dose.
Drug levels were quantified by the LC/MS/MS method described below. Noncompartmental pharmacokinetic analysis was applied for intravenous administration. A linear trapezoidal rule was used to compute AUC(0-24). The terminal t1/2 and C0 were calculated using the last three and the first three data points, respectively
as §5

[7] = Pharmacokinetics after IV and PO dose in beagle dogs; format: in vivo; conditions: for Cmax / Vd / half-life / Tmax: plasma
Experimental: as §3, §4, §5

[8] = Distribution of compound in plasma and tumors of animals; format: in vivo, mice
Experimental: The distribution of compound A1 in the plasma and tumors of animals was assessed.

[9] = system: PC-3 xenografts; experiment: Tumor suppression in PC-3 xenograft animals; format: in vivo, NCr nu/nu mice; conditions: oral 150 mg/kg
Experimental: as §1, §2

[10] = system: HUVEC cells; experiment: Human endothelial tube formation assay (BD BioCoat Angiogenesis System); format: cell-based; conditions: 18 hrs
[11] = Tumor pharmacokinetic studies, IV QDx6; format: in vivo, mice; conditions: 30 mg/kg IV QD×6
[12] = system: MDA-MB-231 xenografts; experiment: Tumor suppression in MDA-MB-231 xenograft animals; format: in vivo, mice; conditions: IV 30 and 60 mg/kg and oral 200 mg/kg
Text: as §1

[13] = system: MiaPaca xenografts; experiment: Tumor suppression in MiaPaca xenograft mice; format: in vivo, NCr nu/nu mice
Experimental: as §1
Tumor volume measurements (FIG. 3A) and body weight (FIG. 3B) were recorded on days 3, 6, 8, 10, 13 and 15.
as §2

[14] = Body weight of tumor-bearing xenograft animals; format: in vivo, mice; conditions: BC-PC3 xenograft; IV or IP dosing, days 1-18
[15] = Sprague-Dawley, IV 2.50 mg/kg, SD rats
[16] = dog, 0.8 mg/kg, IV 0.80 mg/kg, Beagle dogs
[17] = dog, PO 3.80 mg/kg, Beagle dogs
[18] = Sprague-Dawley, PO 8.06 mg/kg, SD-Rats

O=C(O)c1ccc2c(c1)nc(Nc1cccc(Cl)c1)c1ccncc12 [Compound A1]
caspase-3 cell staining levels versus untreated control cells [1]: four-fold greater
tumor growth [2]: significantly inhibited tumor growth
tumor growth [3]: significantly inhibited tumor growth
Tmax ([4]; Sprague-Dawley, po, […]): 1 h
half-life ([4]; Sprague-Dawley, po, […]): 4.5 h
Cmax [4, 15]: 21300 ng/mL
Vd [4, 15]: 2.5 L/kg
half-life [4, 15]: 9.8 h
tumor growth ([5]; BX-PC3 xenograft mice, oral administration): significantly inhibited tumor growth
CLs ([6]; IV 5 mg/kg): 25 mL/min/kg
Cp0-exp ([6]; IV 5 mg/kg): 13201 ng/mL
Kel ([6]; IV 5 mg/kg): 0.1586 h⁻¹
F(0-8 h) ([6]; PO 25 mg/kg): 10.9%
F(0-inf h) ([6]; PO 25 mg/kg): 18.7%
Kel ([6]; PO 25 mg/kg): 0.1076 h⁻¹
half-life ([6]; IV 5 mg/kg): 4.4 h
half-life ([6]; PO 25 mg/kg): 6.4 h
AUC(0-12 h) ([7]; IV 0.80 mg/kg, Beagle dogs): 349 ng · h · mI^−1
AUC(0-Inf) ([7]; IV 0.80 mg/kg, Beagle dogs): 352 ng · h · mI^−1
CLs ([7]; IV 0.80 mg/kg, Beagle dogs): 38.3 mL/min/kg
Cp0-exp ([7]; IV 0.80 mg/kg, Beagle dogs): 1406 ng/mL
Kel ([7]; IV 0.80 mg/kg, Beagle dogs): 0.5546 h⁻¹
AUC(0-Inf) ([7]; IV MC 0.80 mg/kg, Beagle dogs): 633 ng · h · mI^−1
Cmax [7, 16]: 1040 ng/mL
Vd [7, 16]: 4.1 L/kg
half-life [7, 16]: 1.2 h
Cmax [7, 17]: 495 ng/mL
Tmax [7, 17]: 0.5 h
half-life [7, 17]: 1.2 h
compound identified in plasma ([8]; 30 mg/kg IV): about 6.8 micromolar
compound identified in tumors ([8]; 30 mg/kg IV): about 42.9 micromolar
compound identified in plasma ([8]; 60 mg/kg IV): ~2.2 µM
compound identified in tumors ([8]; 60 mg/kg IV): ~7.0 µM
compound identified in plasma ([8]; 200 mg/kg orally): ~9.5 µM
compound identified in tumors ([8]; 200 mg/kg orally): ~6.4 µM
tumor growth [9]: significantly inhibited tumor growth

C#Cc1cccc(Nc2nc3cc(C(=O)O)ccc3c3cncnc23)c1 [Compound A2]
concentration range inhibiting tube formation [10]: 1 to 5 µM
half life change on repeated dosing [11]: about doubles
AUC(0-12 h) ([4]; IV 1.56 mg/kg, SD Rats): 39194 ng · h · mI^−1
AUC(0-Inf) ([4]; IV 1.56 mg/kg, SD Rats): 36659 ng · h · mI^−1
CLs ([4]; IV 1.56 mg/kg, SD Rats): 1.7 mL/min/kg
Cp0-exp ([4]; IV 1.56 mg/kg, SD Rats): 47935 ng/mL
Kel ([4]; IV 1.56 mg/kg, SD Rats): 0.1215 h⁻¹
tl/2 ([4]; IV 1.56 mg/kg, SD Rats): 5.7 h
AUC(0-12 h) ([4]; PO 8.06 mg/kg, SD-Rats): 73945 ng · h · mI^−1
AUC(0-Inf) ([4]; PO 8.06 mg/kg, SD-Rats): 80286 ng · h · mI^−1
F(0-8 h) ([4]; PO 8.06 mg/kg, SD-Rats): 31.2%
F(0-12 h) ([4]; PO 8.06 mg/kg, SD-Rats): 37.7%
F(0-Inf) ([4]; PO 8.06 mg/kg, SD-Rats): 43.8%
Kel ([4]; PO 8.06 mg/kg, SD-Rats): 0.1077 h⁻¹
tl/2 ([4]; PO 8.06 mg/kg, SD-Rats): 6.4 h
Cmax ([4]; Sprague-Dawley, IV 1.56 mg/kg, SD Rats): 34300 ng/mL
Cmax [4, 18]: 6670 ng/mL
Tmax [4, 18]: 2 h
Vd ([4]; IV 1.56 mg/kg, SD Rats): 0.6 L/kg
tumor progression (FIG. 4A) ([5]; BC-PC3 xenograft, 60 mg/kg QD IV, 50 mg/kg BID IV or 100 mg/kg BID IP): significantly inhibited tumor progression
tumor progression [12]: significantly inhibited tumor progression
tumor progression ([13]; IV 50 and 60 mg/kg and IP 100 mg/kg): significantly inhibited tumor progression
tumor progression ([13]; oral 100 mg/kg QD×8 and 200 mg/kg QD×6): significantly inhibited tumor progression
AUC(0-12 h) ([7]; IV 2.00 mg/kg, Dog): 1414 ng · h · mI^−1
AUC(0-Inf) ([7]; IV 2.00 mg/kg, Dog): 1437 ng · h · mI^−1
CLs ([7]; IV 2.00 mg/kg, Dog): 23.3 mL/min/kg
Cp0-exp ([7]; IV 2.00 mg/kg, Dog): 3847 ng/mL
Kel ([7]; IV 2.00 mg/kg, Dog): 0.1360 h⁻¹
tl/2 ([7]; IV 2.00 mg/kg, Dog): 5.1 h
Cmax ([7]; beagle, IV 2.00 mg/kg, Dog): 3070 ng/mL
Vd ([7]; beagle, IV 2.00 mg/kg, Dog): 10.2 L/kg
Cmax ([7]; beagle, PO 7.50 mg/kg, Dog): 1210 ng/mL
Tmax ([7]; beagle, PO 7.50 mg/kg, Dog): 1 h
body weight (FIG. 4B) [14]: not significantly altering body weight

Reference: patent US8168651B2, “Protein kinase modulators” (Cylene Pharmaceuticals, Inc., priority 2008, dated 2012)
